“And” between values parts separate entries of the source, which are not always exact repeats. Equal values may be shown once.
System: BDF1 mice, Adenocarcinoma 755 s.c., tumor weight T/C
Assay: NCI In Vivo Anticancer Drug Screen. Data for tumor model Adenocarcinoma 755 (subcutaneous) in B6D2F1 (BDF1) mice
Settings: endpoint: mean tumor weight, higher = larger tumour
Summary of the method: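 Readout: T/C, i.e. treated-group measurement over vehicle-control measurement. Endpoint is survival or tumor size in tumor-bearing mice given compound.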

NC1C(O)C(O)C(Nc2ncnc3nc[nH]c23)OC1C(O)CO (stereo not given)
T/C (dose: 0.18 mg/kg/injection, schedule: Q## X000 (ip), vehicle: carboxymethylcellulose (CMC)): 65 % of control
T/C (dose: 0.35 mg/kg/injection, schedule: Q## X000 (ip), vehicle: carboxymethylcellulose (CMC)): 65 % of control
T/C (dose: 0.7 mg/kg/injection, schedule: Q## X000 (ip), vehicle: carboxymethylcellulose (CMC)): 67 % of control
T/C (dose: 1.35 mg/kg/injection, schedule: Q## X000 (ip), vehicle: carboxymethylcellulose (CMC)): 107 % of control

NC(N)=Nc1nc2ccccc2o1
T/C (dose: 55.0 mg/kg/injection, schedule: Q01DX011 (ip), vehicle: methylcellulose (MC)): 109 % of control
T/C (dose: 110.0 mg/kg/injection, schedule: Q01DX011 (ip), vehicle: methylcellulose (MC)): 99 % of control
T/C (dose: 220.0 mg/kg/injection, schedule: Q01DX011 (ip), vehicle: methylcellulose (MC)): 94 % of control
T/C (dose: 330.0 mg/kg/injection, schedule: Q01DX011 (ip), vehicle: methylcellulose (MC)): 66 % of control
T/C (dose: 440.0 mg/kg/injection, schedule: Q01DX011 (ip), vehicle: methylcellulose (MC)): 78 % of control

Cc1ccc(C)c(N=Nc2c(S(=O)(=O)O)cc3cc(NC(=O)Nc4ccc5c(O)c(N=Nc6ccc7cc(S(=O)(=O)O)ccc7c6)c(S(=O)(=O)O)cc5c4)ccc3c2O)c1
T/C (dose: 45.0 mg/kg/injection, schedule: Q01DX011 (ip), vehicle: carboxymethylcellulose (CMC)): 59 % of control

CCCCN=NNc1nc[nH]c1C(N)=O
T/C (dose: 16.0 mg/kg/injection, schedule: Q01DX011 (ip), vehicle: methylcellulose (MC)): 124 % of control
T/C (dose: 31.0 mg/kg/injection, schedule: Q01DX011 (ip), vehicle: methylcellulose (MC)): 75 % of control
T/C (dose: 62.0 mg/kg/injection, schedule: Q01DX011 (ip), vehicle: methylcellulose (MC)): 79 % of control

C=C(Br)CN(CC)CCO
T/C (dose: 50.0 mg/kg/injection, schedule: Q01DX011 (ip), vehicle: other): 66 % of control

CCCCn1cnc2c(=S)nc(N)[nH]c21
T/C (dose: 0.6 mg/kg/injection, schedule: Q01DX011 (ip), vehicle: carboxymethylcellulose (CMC)): 57 % of control
T/C (dose: 1.2 mg/kg/injection, schedule: Q01DX011 (ip), vehicle: carboxymethylcellulose (CMC)): 35 % of control
T/C (dose: 1.2 mg/kg/injection, schedule: Q01DX011 (ip), vehicle: olive oil, sesame oil, peanut oil): 60 % of control
T/C (dose: 2.5 mg/kg/injection, schedule: Q01DX011 (ip), vehicle: carboxymethylcellulose (CMC)): 2 % of control
T/C (dose: 2.5 mg/kg/injection, schedule: Q01DX011 (ip), vehicle: olive oil, sesame oil, peanut oil): 33 % of control

[I][Hg][CH2][C@H]1CO[C@H]([CH2][Hg][I])CO1
T/C (dose: 6.0 mg/kg/injection, schedule: Q01DX011 (ip), vehicle: carboxymethylcellulose (CMC)): 95 % of control
T/C (dose: 12.0 mg/kg/injection, schedule: Q01DX011 (ip), vehicle: carboxymethylcellulose (CMC)): 46 % of control
T/C (dose: 25.0 mg/kg/injection, schedule: Q01DX011 (ip), vehicle: carboxymethylcellulose (CMC)): 32 % of control and 33 % of control
T/C (dose: 50.0 mg/kg/injection, schedule: Q01DX011 (ip), vehicle: carboxymethylcellulose (CMC)): 21 % of control

NC1(C(=O)O)CCCC1
T/C (dose: 4.45 mg/kg/injection, schedule: Q01DX011 (ip), vehicle: carboxymethylcellulose (CMC)): 71 % of control
T/C (dose: 7.5 mg/kg/injection, schedule: Q01DX011 (ip), vehicle: methylcellulose (MC)): 61 % of control
T/C (dose: 8.9 mg/kg/injection, schedule: Q01DX011 (ip), vehicle: carboxymethylcellulose (CMC)): 70 % of control
T/C (dose: 13.12 mg/kg/injection, schedule: Q01DX011 (ip), vehicle: carboxymethylcellulose (CMC)): 42 % of control
T/C (dose: 14.24 mg/kg/injection, schedule: Q01DX011 (ip), vehicle: carboxymethylcellulose (CMC)): 83 % of control
T/C (dose: 15.0 mg/kg/injection, schedule: Q01DX011 (ip), vehicle: methylcellulose (MC)): 96 % of control
T/C (dose: 16.0 mg/kg/injection, schedule: Q01DX011 (ip), vehicle: saline): 43 % of control
T/C (dose: 18.0 mg/kg/injection, schedule: Q01DX011 (ip), vehicle: methylcellulose (MC)): 40 % of control
T/C (dose: 23.73 mg/kg/injection, schedule: Q01DX011 (ip), vehicle: carboxymethylcellulose (CMC)): 55 % of control
T/C (dose: 30.0 mg/kg/injection, schedule: Q01DX011 (ip), vehicle: methylcellulose (MC)): 12 % of control
T/C (dose: 31.3 mg/kg/injection, schedule: Q01DX011 (ip), vehicle: saline): 13 % of control
T/C (dose: 35.6 mg/kg/injection, schedule: Q01DX011 (ip), vehicle: carboxymethylcellulose (CMC)): 33 % of control and 38 % of control
T/C (dose: 37.5 mg/kg/injection, schedule: Q01DX011 (ip), vehicle: methylcellulose (MC)): 16 % of control
T/C (dose: 42.0 mg/kg/injection, schedule: Q01DX011 (ip), vehicle: carboxymethylcellulose (CMC)): 31 % of control
T/C (dose: 42.0 mg/kg/injection, schedule: Q01DX011 (oral), vehicle: saline): 10 % of control
T/C (dose: 52.5 mg/kg/injection, schedule: Q01DX011 (ip), vehicle: carboxymethylcellulose (CMC)): 8 % of control and 14 % of control
T/C (dose: 60.0 mg/kg/injection, schedule: Q01DX011 (ip), vehicle: methylcellulose (MC)): 12 % of control
T/C (dose: 62.5 mg/kg/injection, schedule: Q01DX011 (ip), vehicle: saline): 6 % of control
T/C (dose: 63.0 mg/kg/injection, schedule: Q01DX011 (oral), vehicle: saline): 4 % of control
T/C (dose: 70.0 mg/kg/injection, schedule: Q01DX011 (ip), vehicle: carboxymethylcellulose (CMC)): 4 % of control
T/C (dose: 95.0 mg/kg/injection, schedule: Q01DX011 (oral), vehicle: saline): 1 % of control
T/C (dose: 105.0 mg/kg/injection, schedule: Q01DX011 (ip), vehicle: carboxymethylcellulose (CMC)): 3 % of control and 6 % of control
